Results from PubChem BioAssay (NCI).
Values joined by “and” are separate entries in the source; they are usually repeats but may differ in a detail not shown here. Identical values can stand only once.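 Five concentrations, 48 hours, 96-well plates. Abbreviation: GI50, concentration required for 50% inhibition of growth. TGI is the concentration that stops growth completely.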 *1 amine or outer side, *2 acyl side, *3 side chain or, on linkers, in order; H or OH if unused. Where a SMILES comes first, the peptide text is derived from it. [ ]: non-standard residue; d: D form. X32 = C[C@H](N[*:1])C(=O)C(C)(C)C(=O)[*:2]; Hmpa(2S,3S) = CC[C@H](C)[C@H](O)C(=O)O; NMeY = CN[C@@H](Cc1ccc(O)cc1)C(=O)O; NMeL = CN[C@@H](CC(C)C)C(=O)O; NMeV = CN[C@H](C(=O)O)C(C)C; βAla = NCCC(=O)O

What was measured:
Test in all cases: NCI-60 cell line screen, 48 h
[1] = system: HCT-116 colon
[2] = system: HCT-15 colon
[3] = system: HT29 colon
[4] = system: KM12 colon
[5] = system: NCI-H226 lung
[6] = system: OVCAR-8 ovarian
[7] = system: PC-3 prostate
[8] = system: SF-295 CNS
[9] = system: SF-539 CNS
[10] = system: U251 CNS

Structure (SMILES)	TGI [1]	TGI [2]	TGI [3]	TGI [4]	TGI [5]	TGI [6]	TGI [7]	TGI [8]	TGI [9]	TGI [10]	GI50 [2]	GI50 [4]	GI50 [5]	GI50 [6]	GI50 [7]	GI50 [8]	GI50 [9]	GI50 [10]
CCOC(=O)c1c(N2CCOCC2)[nH]c(=O)c(C(c2ccco2)c2c(O)c(C(=O)OCC)c(N3CCOCC3)[nH]c2=O)c1O	> 100 µM	> 100 µM	> 100 µM	> 100 µM	> 100 µM	> 100 µM	> 100 µM	> 100 µM	> 100 µM	> 100 µM	–	–	–	–	–	–	–	–
CC(C)(C)OC(=O)N1C(c2cccnc2)=CC[C@H]2C3CC=C(c4cccnc4)[C@@]3(C)CC[C@@H]21 (stereo partly specified)	17.5 µM	13.8 µM	11.8 µM	28.8 µM	15.1 µM	25 µM	19.3 µM	11.1 µM	14.8 µM	12 µM	–	–	–	–	–	–	–	–
OCCNCNc1nc(NCNCCO)nc(N(CNCCO)CNCCO)n1	41.5 µM	61.6 µM	45.8 µM	> 59.5 µM	47.1 µM	59.5 µM	50 µM	> 61.6 µM	41.3 µM	43.7 µM	–	–	–	–	–	–	–	–
O=C(O)CN1C(=O)C(Cc2ccc(O)cc2)N=C(c2cccc(O)c2)c2ccccc21 (stereo unspecified)	> 100 µM	> 100 µM	> 100 µM	> 100 µM	> 100 µM	> 100 µM	> 100 µM	> 100 µM	> 100 µM	> 100 µM	–	–	–	–	–	–	–	–
CC(C)CC(NC(=O)OC(C)(C)C)C(=O)Nc1ccc(Nc2nc(F)nc(-c3c4ccccc4cn3C)n2)cc1 (stereo unspecified)	> 100 µM	> 100 µM	54.9 µM	42.3 µM	> 100 µM	> 100 µM	> 100 µM	> 100 µM	> 100 µM	> 46.4 µM	–	–	–	–	–	–	–	–
CCCCCCCCCCNC(=O)CCC(NC(=O)c1ccc(N(C)Cc2cnc3nc(N)nc(N)c3n2)cc1)C(=O)NCCCCCCCCCC (stereo unspecified)	14 µM	> 100 µM	35.2 µM	16.2 µM	59.3 µM	25.5 µM	37.8 µM	> 100 µM	15.3 µM	14.1 µM	–	–	–	–	–	–	–	–
CC(=O)O[C@H]1[C@H](OC(=O)CC(C)(O)CC(=O)O)C[C@]2(C)C3=C(CCC2C1(C)C)[C@]1(C)CC[C@H]([C@H]2CC[C@H](C(C)(C)O)OC2O)[C@@]1(C)[C@@H](O)C3 (stereo partly specified)	44.7 µM	34.9 µM	30.2 µM	38.6 µM	53.8 µM	35.4 µM	33.2 µM	33.9 µM	–	35.5 µM	–	–	–	–	–	–	–	–
CO/N=C(\C)c1cccc(Nc2c3ccccc3nc3occc23)c1	21.2 µM	50.4 µM	16.7 µM	39.5 µM	33.7 µM	66.4 µM	> 100 µM	18.4 µM	21.5 µM	38.6 µM	–	–	–	–	–	–	–	–
CC(=O)OCc1ccc2oc(=O)c(C(=O)Oc3ccccc3)cc2c1	30.6 µM	50 µM	> 100 µM	> 100 µM	> 100 µM	> 100 µM	34.5 µM	> 100 µM	> 100 µM	> 100 µM	–	–	–	–	–	–	–	–
COC(=O)C1OC(O[C@H]2CC[C@]3(C)[C@H]4CC=C5[C@@H]6CC(C)(C)CC[C@]6(C(=O)OC6OCC(O)C(O)C6OC6OC(C)C(OC7OCC(O)C(O)C7O)C(O)C6O)CC[C@@]5(C)[C@]4(C)CC[C@H]3C2(C)C)C(O)C(O)C1O (stereo partly specified)	33.1 µM and 37.5 µM	> 100 µM	30.8 µM and 29.5 µM	30.3 µM	37.7 µM and 37.2 µM	40.7 µM and 42.8 µM	27.6 µM and 29.5 µM	34.8 µM and 32.2 µM	–	33.3 µM and 33.8 µM	–	–	–	–	–	–	–	–
NC(N)=Nc1ccc(CC(N)C(=O)O)cc1 (stereo unspecified)	> 12.5 µM	> 12.5 µM	> 12.5 µM	> 12.5 µM	> 12.5 µM	> 12.5 µM	> 12.5 µM	> 12.5 µM	–	> 12.5 µM	–	–	–	–	–	–	–	–
N#C/C(N)=C(\C#N)NC(=O)C(=O)N/C(C#N)=C(\N)C#N	> 100 µM	> 100 µM	> 100 µM	> 100 µM	> 100 µM	> 100 µM	> 100 µM	> 100 µM	> 100 µM	> 100 µM	–	–	–	–	–	–	–	–
CC[C@H](C)[C@@H]1OC(=O)CCNC(=O)[C@@H](C)NC(=O)C(C)(C)C(=O)[C@H](C)NC(=O)[C@H](Cc2ccc(OC)cc2)N(C)C(=O)[C@H](C(C)C)N(C)C(=O)CNC(=O)[C@H](CC(C)C)N(C)C(=O)CNC1=O (cyclo(G[NMeL]G[NMeV][NMeY](Me)[X32][dA][βAla][Hmpa(2S,3S)]))	> 27.8 µM	> 50 µM	10.2 µM	–	> 38.2 µM	23.7 µM	> 31.5 µM	24.3 µM	> 33.6 µM	2.62 µM	–	–	–	–	–	–	–	–
O=C(NCCCCCCNC(=O)c1cc(-c2ccccc2)nc2ccccc12)c1cc(-c2ccccc2)nc2ccccc12	> 100 µM	> 100 µM	> 100 µM	–	> 100 µM	> 100 µM	> 100 µM	> 100 µM	> 100 µM	> 100 µM	–	–	–	–	–	–	–	–
O=C1C(c2c(O)[nH]c3ccc(Br)cc23)=Nc2ccccc21	6.47 µM	> 100 µM	15 µM	50.5 µM	34.3 µM	21.7 µM	17.8 µM	51 µM	–	26.2 µM	–	–	–	–	–	–	–	–
COc1ccc(SCc2cc(OCc3ccccc3)c(OCc3ccccc3)c(OCc3ccccc3)c2)cc1	3.14 µM	3.47 µM	–	3.16 µM	3.73 µM	3.59 µM	3.37 µM	3.58 µM	3.45 µM	3.22 µM	–	–	–	–	–	–	–	–
Cc1ccc2c(c1)-c1nc(N)c(C#N)c(-c3ccccc3)c1CCS2(=O)=O	> 100 µM	> 100 µM	> 100 µM	> 100 µM	78.5 µM	56.5 µM	> 100 µM	–	–	> 100 µM	–	–	–	–	–	–	–	–
COc1cc2c(cc1OCCCC(=O)Nc1ccc3ccc4cccc5ccc1c3c45)N=C[C@@H]1CCCN1C2=O	–	> 100 µM	> 83.6 µM	0.725 µM	< 0.0243 µM	< 0.0245 µM	6.69 µM	1.08 µM	< 0.01 µM	> 100 µM	0.169 µM	0.104 µM	< 0.0109 µM	< 0.0134 µM	0.222 µM	0.217 µM	< 0.01 µM	< 0.01 µM
C=C1CCC([N+](=O)[O-])[C@](C)(N=O)CC[C@@H]2C1CC2(C)C (stereo partly specified)	32.1 µM	65.4 µM	45.4 µM	65.5 µM	30.9 µM	48 µM	> 100 µM	37.6 µM	–	48.2 µM	–	–	–	–	–	–	–	–
C=CC(Cl)(CBr)CCC(Br)C(C)(C)Cl (stereo unspecified)	25.4 µM	36.7 µM	28.9 µM	–	> 100 µM	31.5 µM	35 µM	28.8 µM	30.5 µM	27.4 µM	–	–	–	–	–	–	–	–
